Results on 16 compounds are retold here after US10913750B2, “Tubulin-binding compounds, compositions and uses related thereto” (The Regents of the University of California, priority 2015, dated 2021).

Each structure is given as a SMILES string. A value given as a limit tells only on which side of the number the result lay.

For assay [1], the system named is HeLa cells. Nature of the assay: CellTiter-Glo cell viability, HeLa cells. The class given is cell-based. The settings on record: Homo sapiens; HeLa cells, 72 hours, CellTiter-Glo. The method, then:
(§1) The cell viability IC50 of each compound was determined using Promega CellTiter-Glo Luminescent Cell Viability Assay kit by measuring the total ATP levels to quantify the number of metabolically active cells upon drug treatment as described in Crouch et al., J Immunol Methods 1993, 160, (1), 81-8. Briefly, the compounds were suspended in DMSO at 10 mM and diluted in 384 plates (20 μl/well in DMSO) in triplicate by a 14-point titration (12 nM to 100 μM). 50 μl of HeLa cells or patient derived glioblastoma cells (HK-309) (2000 cells/well) were then treated with the prepared dilutions of the drugs (0.5 μl) and incubated at 37° C. and 5% CO2. 72 hours later 50 μl of CellTiter-Glo reagent was added to each well followed by a 2 minutes shaking and a 10-minute incubation to lyse the cells. The relative luminescent intensity units (RLU) of each well was measured using a Tecan M1000 microplate reader (Tecan Group Ltd.) with its green filter and 1 second integration time.
(§2) Cells used in Example 2 and other examples disclosed herein were cultured as follows: Adherent HeLa cells and patient derived glioblastoma cells were grown with 5% CO2 at 37° C. in F12:DMEM 50:50 medium (Invitrogen) containing 10% FBS and 1% penicillin/streptomycin. To obtain HeLa cells synchronized in mitosis, cycling cells were treated with 2 mM thymidine (Sigma-Aldrich) for eighteen hours, washed three times with PBS, and released into fresh media until they entered mitosis eight hours post-release. Patient-derived glioblastoma cells (HK-309) were collected and grown with approval from the UCLA Institutional Review Board. HK-309 was derived from a recurrent glioblastoma taken from a person. The cells were initially propagated as cancer stem cell-containing spheres in serum-free medium containing basic fibroblast growth factor and epidermal growth factor (Preprotech) as described previously by Visnyei et al., Mol Cancer Ther 2011, 10, (10), 1818-28.
For mitotic arrest IC50s, cells were treated with a twenty-point-2-fold-titration (190 pM to 10 μM) of each compound tested for 20 hours. For cell viability IC50s, cells were treated with a fourteen-point-2-fold-titration (12.2 nM to 100 μM). Mitotic arrest IC50 was determined by measuring the percent G2/M arrest using the Vybrant DyeCycle Green (Invitrogen) assay described above. Cell viability IC50 was determined using the CellTiter-Glo Assay (Promega), which measures total ATP levels. Plates were read with a Tecan M1000 micro-plate reader at 540 nm. The CDD software was used for generating IC50 and IC90 values.

In the next assay the target is T1, tubulin (Sus scrofa, UniProt P02554).
T1 construct: purchased Cytoskeleton Inc. BK011P
T1 sequence (P02554 whole entry): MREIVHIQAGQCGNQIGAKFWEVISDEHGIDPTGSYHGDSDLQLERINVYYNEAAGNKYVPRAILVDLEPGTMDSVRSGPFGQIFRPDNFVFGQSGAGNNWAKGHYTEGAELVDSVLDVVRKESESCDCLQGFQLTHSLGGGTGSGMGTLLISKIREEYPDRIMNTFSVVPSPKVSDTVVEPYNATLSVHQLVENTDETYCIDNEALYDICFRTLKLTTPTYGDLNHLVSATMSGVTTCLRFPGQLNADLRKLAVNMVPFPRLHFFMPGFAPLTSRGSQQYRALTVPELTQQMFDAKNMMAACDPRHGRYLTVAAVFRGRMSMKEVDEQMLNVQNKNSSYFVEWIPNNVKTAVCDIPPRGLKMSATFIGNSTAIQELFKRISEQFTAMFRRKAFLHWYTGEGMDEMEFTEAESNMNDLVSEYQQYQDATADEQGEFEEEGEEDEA
T1 sequence (P02550 whole entry partner): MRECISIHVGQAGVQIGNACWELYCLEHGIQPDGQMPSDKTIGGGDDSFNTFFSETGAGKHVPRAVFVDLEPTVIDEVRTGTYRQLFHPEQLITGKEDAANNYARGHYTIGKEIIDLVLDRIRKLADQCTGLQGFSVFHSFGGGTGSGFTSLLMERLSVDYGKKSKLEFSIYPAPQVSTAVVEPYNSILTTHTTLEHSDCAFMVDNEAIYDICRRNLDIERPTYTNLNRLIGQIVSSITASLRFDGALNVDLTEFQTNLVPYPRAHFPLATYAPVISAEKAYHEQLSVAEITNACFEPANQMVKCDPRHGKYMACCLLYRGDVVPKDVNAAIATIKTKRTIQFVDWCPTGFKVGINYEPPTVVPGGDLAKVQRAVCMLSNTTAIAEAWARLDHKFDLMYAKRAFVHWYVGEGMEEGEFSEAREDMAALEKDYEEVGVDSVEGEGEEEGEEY
Nature of the assay: In vitro tubulin polymerization assay (HTS-tubulin polymerization kit, Cytoskeleton). It counts as biochemical. To be noted: 3 μM compound, fluorescence, 70 minutes at 37° C. As to the method:
1.5 ul of 10× strength compound, 20 μl of tubulin solution and Triton X-100 at a final concentration of 0.01% were added to each well in a 384 well plate. The reactions were assembled on ice to prevent tubulin pre-polymerization. For kinetic measurements, microtubule polymerization was monitored by reading the fluorescence at 420 nm (due to the incorporation of a fluorescent reporter into microtubules as polymerization occurs) every ten seconds using a Tecan M1000 microplate reader (FIG. 6B). […] Fluorescence increased as polymerization occurred, due to the incorporation of 4′,6-diamidino-2-phenylindole. Fluorescence was monitored every minute for 70 minutes at 37° C.
Tubulin polymerization reactions were carried out according to the manufacturer (Cytoskeleton, BK011P) in the presence of 3 μM colchicine, MI-181, taxol or DMSO. Polymerization was monitored with a Tecan M1000 micro-plate reader at 420 nm for 70 minutes at 37° C. The results are depicted in FIG. 11.

For assay [2], the system named is patient-derived glioblastoma cells (HK-309). Briefly: CellTiter-Glo cell viability, patient-derived glioblastoma cells. It counts as cell-based. To be noted: HK-309, 72 hours. As to the method:
as §1, §2

Assay [3] deals with HeLa cells. Nature of the assay: Microtubule stability by immunofluorescence microscopy. It counts as cell-based. The settings on record: increasing concentrations, anti-α-tubulin staining. As to the method:
Next, microtubule stability was analyzed in HeLa cells treated with increasing concentrations of each of these three compounds by fixing the cells with 4% paraformaldehyde, staining them with Hoechst 33342 (DNA dye) to visualize their DNA and anti-α-tubulin antibodies to visualize microtubule structures and then imaging them by immunofluorescence microscopy.

The next assay relates to M308. Briefly: Melanoma colony formation, M308. It counts as cell-based. The settings on record: 10 nM, M308 (second value of pair). The method, then:
(§3) To determine if MI-181 had broad anti-cancer activity, we treated a diverse panel of cancer cell lines including cervical adenocarcinoma (HeLa), breast adenocarcinoma (MCF7), melanoma (M233), osteosarcoma (U205), acute lymphoblastic leukemia (CCRF-CEM), non-small cell lung carcinoma (NCI-H460), and breast adenocarcinoma (MCF7) with MI-181 and determined its cell viability IC50 (FIGS. 13A and 13B). […] Therefore, the efficacy of MI-181 was analyzed in a panel of melanoma cell lines with defined genetic backgrounds including BRAF^V600E and NRAS^Q61L mutations and varied sensitivities to Vemurafenib (BRAF inhibitor) and Trametinib (MEK inhibitor), which are currently used to treat BRAF^V600E melanomas^43,44 (FIG. 10c). […] As a general trend BRAF^V600E cell lines were slightly more sensitive than NRAS^Q61L cell lines and MI-181 was effective in Vemurafenib and Trametinib resistant cell lines (FIG. 10c and Table 3). Finally, we tested the ability of MI-181 to inhibit melanoma colony formation using the M233 and M308 cell lines (both resistant to Vemurafenib). Indeed, MI-181 was a potent inhibitor of colony formation (percentage colony formation for 10 nM MI-181=0.2±0.1 and 0.8±0.7; for 10 nM colchicine=0.1±0.06 and 1.5±0.5; and for 10 nM Vemurafenib=94±7 and 102±5) (FIG. 10d). Thus, MI-181 is a potent inhibitor of melanoma cell lines.

A further assay relates to M233. Briefly: Melanoma colony formation, M233. It counts as cell-based. The settings on record: 10 nM, M233 (first value of pair). The method, then: as §3

Take `Cc1cccc(/C=C/c2nc3sc4c(c3c(=O)[nH]2)CCCC4)c1` [Compound 10g, (E)-2-(3-methylstyryl)-5,6,7,8-tetrahydrobenzo[4,5]thieno[2,3-d]pyrimidin-4(3H)-one]: the half-inhibitory concentration (IC50) in the assay with HeLa cells [1] was over 100 µM. In turn, `CSc1ccc(/C=C/c2nc3sc4c(c3c(=O)[nH]2)CCCC4)cc1` [Compound 10e, (E)-2-(4-methylthiostyryl)-5,6,7,8-tetrahydrobenzo[4,5]thieno[2,3-d]pyrimidin-4(3H)-one] registered a concentration for half-maximal inhibition (IC50) with HeLa cells [1] of 6.31 µM. Turning to `O=c1[nH]c(/C=C/c2ccc(F)c(F)c2)nc2sc3c(c12)CCCC3` [Compound 10j, (E)-2-(3,4-difluorostyryl)-5,6,7,8-tetrahydrobenzo[4,5]thieno[2,3-d]pyrimidin-4(3H)-one], the IC50 in the assay with HeLa cells [1] was over 100 µM. Regarding `COc1ccc(/C=C/c2nc3sc4c(c3c(=O)[nH]2)CCCC4)cc1OC` [Compound 10k, (E)-2-(3,4-dimethoxystyryl)-5,6,7,8-tetrahydrobenzo[4,5]thieno[2,3-d]pyrimidin-4(3H)-one], the IC50 with HeLa cells [1] is over 100 µM.

On to `CCOc1ccc(/C=C/c2nc3sc4c(c3c(=O)[nH]2)CCCC4)cc1` [Compound 10l, (E)-2-(4-ethoxystyryl)-5,6,7,8-tetrahydrobenzo[4,5]thieno[2,3-d]pyrimidin-4(3H)-one], for which the IC50 in the assay on HeLa cells [1] is over 100 µM. Take `CCOc1ccc(/C=C/c2nc3sc4c(c3c(=O)[nH]2)CCCC4)cc1OC` [Compound 10f, (E)-2-(4-ethoxy-3-methoxystyryl)-5,6,7,8-tetrahydrobenzo[4,5]thieno[2,3-d]pyrimidin-4(3H)-one]: the IC50 in the assay on HeLa cells [1] amounted to 25.9 µM. Turning to `O=c1[nH]c(/C=C/c2cc(F)ccc2F)nc2sc3c(c12)CCCC3` [Compound 10b, (E)-2-(2,5-difluorostyryl)-5,6,7,8-tetrahydrobenzo[4,5]thieno[2,3-d]pyrimidin-4(3H)-one], the half-maximal inhibitory concentration (IC50) in the assay on HeLa cells [1] was found to be 0.159 µM; in assay [2] it was 0.113 µM. Further, the “inhibition of microtubule (tubulin) polymerization in vitro” value against tubulin is on record as “potent inhibitors of microtubule polymerization similar to colchicine”. Further, the “microtubule stability in treated cells” value with HeLa cells [3] is listed as “destabilized in a drug dose-dependent manner”. For the compound `O=c1[nH]c(/C=C/c2ccc(F)cc2)nc2sc3c(c12)CCCC3` [Compound 10c, (E)-2-(4-fluorostyryl)-5,6,7,8-tetrahydrobenzo[4,5]thieno[2,3-d]pyrimidin-4(3H)-one], the IC50 in the assay with HeLa cells [1] is 1.11 µM. Regarding `COc1cc2c(c(OC)c1OC)-c1ccc(OC)c(=O)cc1[C@@H](NC(C)=O)CC2` [colchicine], the percentage colony formation in the assay on M308 stood at 1.5±0.5; in the assay with M233 it was 0.1±0.06.

Turning to `Cc1ccc(/C=C/c2nc3sc4c(c3c(=O)[nH]2)CCCC4)cc1` [Compound 10m, (E)-2-(4-methylstyryl)-5,6,7,8-tetrahydrobenzo[4,5]thieno[2,3-d]pyrimidin-4(3H)-one], in the assay on HeLa cells [1], the IC50 was over 100 µM. In turn, `O=c1[nH]c(/C=C/c2ccc(Br)cc2)nc2sc3c(c12)CCCC3` [Compound 10i, (E)-2-(4-bromostyryl)-5,6,7,8-tetrahydrobenzo[4,5]thieno[2,3-d]pyrimidin-4(3H)-one] had an IC50 with HeLa cells [1] of over 100 µM.

Turning to `COc1ccc(/C=C/c2nc3sc4c(c3c(=O)[nH]2)CCCC4)cc1` [Compound 10h, (E)-2-(4-methoxystyryl)-5,6,7,8-tetrahydrobenzo[4,5]thieno[2,3-d]pyrimidin-4(3H)-one], the IC50 in the assay on HeLa cells [1] came to 50.9 µM. With `O=c1[nH]c(/C=C/c2ccccc2C(F)(F)F)nc2sc3c(c12)CCCC3` [Compound 10u], the half-maximal inhibitory concentration (IC50) in the assay with HeLa cells [1] was over 100 µM. `COc1cccc(/C=C/c2nc3sc4c(c3c(=O)[nH]2)CCCC4)c1` [Compound 10d, (E)-2-(3-methoxystyryl)-5,6,7,8-tetrahydrobenzo[4,5]thieno[2,3-d]pyrimidin-4(3H)-one] showed an IC50 with HeLa cells [1] of 4.21 µM. Consider `O=c1[nH]c(/C=C/c2ccc(F)cc2F)nc2sc3c(c12)CCCC3` [Compound 10a, (E)-2-(2,4-difluorostyryl)-5,6,7,8-tetrahydrobenzo[4,5]thieno[2,3-d]pyrimidin-4(3H)-one], for which the concentration for half-maximal inhibition (IC50) came out at 0.246 µM in the assay with HeLa cells [1] and 0.283 µM in assay [2]. Also, the “inhibition of microtubule (tubulin) polymerization in vitro” value at tubulin is given as “potent inhibitors of microtubule polymerization similar to colchicine”. Further, in the assay with HeLa cells [3], the “microtubule stability in treated cells” value is “destabilized in a drug dose-dependent manner”. `CCCS(=O)(=O)Nc1ccc(F)c(C(=O)c2c[nH]c3ncc(-c4ccc(Cl)cc4)cc23)c1F` [Vemurafenib]: the percentage colony formation in the assay on M308 stood at 102±5; in the assay on M233, 94±7.
